Results as given in patent publication US20160007585A1, “INSECT CONTROL DEVICE” (Clarke Mosquito Control Products, Inc., priority 2014, published 2016).

System: Anopheles gambiae
Test: Attraction tests in outdoor screenhouses: mosquitoes caught in MM-X or BG Sentinel traps baited with plant-based volatile organic compounds
Type: in vivo
Conditions: single compounds suspended in mineral oil; 300-400 released
Description: Attraction tests were conducted in two sizes of outdoor screenhouses (˜5.5×7 m and 11×7 m, each>3 m high) at the Mbita research station (Odhiambo Campus, Kenya) of the International Centre of Insect Physiology & Ecology (ICIPE). The screenhouses provided a semi-natural physical environment that allowed experimental control over mosquito sample size and recovery of marked and/or released mosquitoes. It was noted that fluctuations of weather conditions would cause variations in flight behavior from night to night, affecting attraction to volatile organic compounds. The walls and ceiling were lined with netting to reduce interference from ants and spiders and to prevent mosquitoes from aggregating in the vaulted ceiling. The floor was a bed of sand, dampened daily. On the floor at each corner of the screenhouse, dampened pots served as resting harborages, which the mosquitoes typically entered at dawn. When local potted plants were included in the environment, they were spaced throughout the floor.
Tested mosquitoes were the Mbita strain of Anopheles gambiae, colonized locally about 14 years ago, but with infusions of field material in some subsequent years, to maintain genetic diversity. Adults emerging each night from daily collections of pupae were fed water only and were tested in the screenhouses the following night. At this age, both sexes still have adequate deposits of somatic energy from larval feeding but will die during the following 1.5 days without nutrients. Before sunset, the volatile organic compounds baits were installed in mosquito traps, their fans were turned on, and the mosquitoes were released from a small cage prepared for that purpose.
Attraction was measured as the number of mosquitoes caught in MM-X or BG Sentinel traps baited with plant-based volatile organic compounds. The volatile organic compounds were prepared as individual compounds suspended in mineral oil, which controlled release rate according to dosage (concentration) while also retarding release rate of all compounds. Each compound was released separately from other compounds when more than one was released simultaneously. The oil-volatile organic compound suspensions were applied to two different types of release substrates: long nylon fabric strips in the exhaust tube of the trap, and short cotton wicks suspended in a wire basket beneath the exhaust tube. […] As an example of the tested volatile organic compounds, the release profiles of hexanol and phenylacetaldehyde (suspended in hexane or mineral oil, applied to nylon sock or cotton wick) as measured in a MM-X trap is shown in FIGS. 19a and 19b, respectively. The release profiles of hexanol, linalool oxide, ocimene, pinene, and 6-methyl-5-hepten-2-one are similar to phenylacetaldehyde.
The layout of traps was designed to maximize discrimination among traps releasing different plant-based volatile organic compounds or releasing none (the blank control). The small screenhouses contained 2 traps, positioned diagonally. The large screenhouses contained 4 traps. In both sizes, the traps were near the corners, but not so close to the netting walls as to interfere with mosquito flight around the traps or the free flow of the odor plume from the traps. For replicates of each test, the positions of the traps were rotated, to minimize positional bias for one of these variables: a particular compound, particular dose of a compound, or particular combination of several compounds or their proportions. In early tests, a blank trap was always included. But after establishing that a blank trap never caught more than 10 mosquitoes, out of 300-400 released, blank traps were usually replaced by one with a bait using volatile organic compounds. The number trapped out of the total number released, expressed as a percentage, was seldom calculated, because of the large and variable numbers of mosquitoes unaccounted for by trap and aspirator recapture. […]

Compound	attraction score (number of mosquitoes caught in baited trap), in words
CCCCCCO [Hexanol, hexanol]	good scores even at low dosages, with little or no improvement at higher doses
C=CC(C)=CCC=C(C)C [ocimene]	in higher dosages (and therefore higher release rates) gave higher attraction scores
caryophyllene	in higher dosages (and therefore higher release rates) gave higher attraction scores
CCOC(=O)Cc1ccccc1 [ethylphenylacetate]	in higher dosages (and therefore higher release rates) gave higher attraction scores
O=CCc1ccccc1 [phenylacetaldehyde]	weak or mediocre
C=CC(C)(O)CCC=C(C)C (stereo not drawn) [linalool]	in higher dosages (and therefore higher release rates) gave higher attraction scores
